Tested on: subjects with moderately to severely active RA who have an inadequate response to methotrexate (MTX)
Assay: Study 1 (add-on to MTX) - ACR responses (ACR20/50/70)
Type: in vivo, human
Source text: The terms “ACR20”, “ACR50” and “ACR70” as used herein are scores which indicate how much a patient's rheumatoid arthritis has improved according to criteria set out by the American College of Rheumatology (ACR). The ACR score represents a percentage. An ACR20 score means that a person's RA has improved by 20%, an ACR50 score means it has improved by 50%, and an ACR70 score means it has improved by 70%. Specifically, to qualify for an ACR20 score, a person with RA must have at least 20% fewer tender joints and at least 20% fewer swollen joints. In addition the patient must show a 20% improvement in at least three of the following five areas: the person's overall (global) assessment of his or her own RA, the physician's global assessment of the person's RA, the person's assessment of his or her own pain, the person's assessment of his or her own physical functioning, and the results of an erythrocyte sedimentation rate or C-reactive protein (CRP) blood test (both of which test for inflammation). ACR50 and ACR70 scores use the same criteria but require 50% and 70% improvement, respectively, (Felson et al., 1993). In the data presented herein the CRP blood test is used.
Double-blind, placebo-controlled add on study in subjects with moderately to severely active RA who have an inadequate response to methotrexate (MTX) (oral or parenteral).
595 subjects randomized to one of 6 dose regimens of Compound 1 (dosed as [Compound 1:HCl:3H2O]) (3 dose levels administered either once or twice daily) or placebo on top of each subject's stable dose of MTX.
Compound 1 (dosed as [Compound 1:HCl:3H2O]) is dosed for twelve weeks once daily (q.d.) (50 mg, 100 mg or 200 mg) or twice daily (b.i.d.) (25 mg, 50 mg or 100 mg); or placebo.
At Week 12, the subjects on placebo who have not achieved 20% improvement in swollen joint count (SJC66) and tender joint count (TJC68) are re-randomized automatically to receive Compound 1 (dosed as a [Compound 1:HCl:3H2O]) either at 100 mg q.d. or 50 mg b.i.d. doses in a blinded fashion; subjects on 50 mg q.d. who have not achieved 20% improvement in SJC66 and TJC68 will be assigned to 100 mg q.d. and subjects on 25 mg b.i.d. that have not achieved a 20% improvement in SJC66 and TJC68 will be assigned to 50 mg b.i.d. Subjects who switch treatment at week 12 are handled as if they discontinued at week 12 for the purpose of statistical analysis, whereas subjects in the other groups will maintain their randomized treatment until Week 24.
The American College of Rheumatology (ACR) composite score, which evaluates clinical improvement relative to an initial assessment, is a commonly accepted efficacy end point for clinical trials in patients with rheumatoid arthritis. The ACR score correspond to a percentage improvement in pre-set parameters, and therefore measures the evolution of the disease in a patient. For example, ACR20 denotes at least 20% improvement in tender and swollen joint counts and in three of the following end points: global assessment by the patient, global assessment by the doctor, C reactive protein (CRP), patient's pain Visual Analogue Scale and Health Assessment Questionnaire Score. The number of swollen joints, ESR and CRP correlate with radiographic progression of joint damage, whereas tender joint counts, as well as global assessments by doctors and patients, and patients' reports of pain, are sensitive to change in clinical outcomes. Physical function, as assessed by the Health Assessment Questionnaire Score, is a potent predictor of the risk of disability in rheumatoid arthritis (Felson and American College of Rheumatology Committee to Reevaluate Improvement Criteria, 2007; Felson et al., 1993).
In particular, the list of parameters used to assess ACR score can be found in the Table XCVI below and the results of the ACR responses at week 12 via either NRI or LOCF are shown in the tables below. The Hommel-corrected p-value for the pairwise comparisons of each group with placebo is shown. […]

[1] = 50 mg q.d., week 2, 12 weeks results
[2] = 50 mg q.d., week 2, 24 weeks results
[3] = 50 mg q.d., week 4, 12 weeks results
[4] = 50 mg q.d., week 4, 24 weeks results
[5] = 50 mg q.d., week 12, 12 weeks results
[6] = 50 mg q.d., week 12, 24 weeks results
[7] = 50 mg q.d., week 16, 24 weeks results
[8] = 50 mg q.d., week 20, 24 weeks results
[9] = 50 mg q.d., week 24, 24 weeks results
[10] = 50 mg q.d., at week 1, 12 weeks results
[11] = 50 mg q.d., at week 1, 24 weeks results
[12] = 50 mg q.d., week 8, 12 weeks results
[13] = 50 mg q.d., week 8, 24 weeks results
[14] = 100 mg q.d., week 2, 12 weeks results
[15] = 100 mg q.d., week 2, 24 weeks results
[16] = 100 mg q.d., week 4, 12 weeks results
[17] = 100 mg q.d., week 4, 24 weeks results
[18] = 100 mg q.d., week 8, 24 weeks results
[19] = 100 mg q.d., week 12, 12 weeks results

SMILES: O=C(Nc1nc2cccc(-c3ccc(CN4CCS(=O)(=O)CC4)cc3)n2n1)C1CC1 [Compound 1, cyclopropanecarboxylic acid {5-[4-(1,1-dioxo-thiomorpholin-4-ylmethyl)-phenyl]-[1,2,4]triazolo[1,5-a]pyridin-2-yl}-amide]
- ACR20 (LOCF) [1]: 39.0%
- ACR20 (NRI) [1]: 37.8%
- ACR50 (LOCF) [1]: 7.3%
- ACR50 (NRI) [1]: 7.3%
- ACR70 (LOCF) [1]: 2.4%
- ACR70 (NRI) [1]: 2.4%
- ACR20 (LOCF) [2]: 39.0%
- ACR20 (NRI) [2]: 37.8%
- ACR50 (LOCF) [2]: 7.3%
- ACR50 (NRI) [2]: 7.3%
- ACR70 (LOCF) [2]: 2.4%
- ACR70 (NRI) [2]: 2.4%
- ACR20 (LOCF) [3]: 45.1%
- ACR20 (NRI) [3]: 42.7%
- ACR50 (LOCF) [3]: 12.2%
- ACR50 (NRI) [3]: 12.2%
- ACR70 (LOCF) [3]: 7.3%
- ACR70 (NRI) [3]: 7.3%
- ACR20 (LOCF) [4]: 45.1%
- ACR20 (NRI) [4]: 42.7%
- ACR50 (LOCF) [4]: 12.2%
- ACR50 (NRI) [4]: 12.2%
- ACR70 (LOCF) [4]: 7.3%
- ACR70 (NRI) [4]: 7.3%
- ACR20 (LOCF) [5]: 59.8%
- ACR20 (NRI) [5]: 56.1%
- ACR50 (LOCF) [5]: 31.7%
- ACR50 (NRI) [5]: 31.7%
- ACR70 (LOCF) [5]: 15.9%
- ACR70 (NRI) [5]: 15.9%
- ACR20 (LOCF) [6]: 59.8%
- ACR20 (NRI) [6]: 56.1%
- ACR50 (LOCF) [6]: 31.7%
- ACR50 (NRI) [6]: 31.7%
- ACR70 (LOCF) [6]: 15.9%
- ACR70 (NRI) [6]: 15.9%
- ACR20 (LOCF) [7]: 59.8%
- ACR20 (NRI) [7]: 56.1%
- ACR50 (LOCF) [7]: 37.8%
- ACR50 (NRI) [7]: 37.8%
- ACR70 (LOCF) [7]: 18.3%
- ACR70 (NRI) [7]: 18.3%
- ACR20 (LOCF) [8]: 61.0%
- ACR20 (NRI) [8]: 57.3%
- ACR50 (LOCF) [8]: 39.0%
- ACR70 (LOCF) [8]: 23.2%
- ACR20 (LOCF) [9]: 61.0%
- ACR20 (NRI) [9]: 54.9%
- ACR50 (LOCF) [9]: 36.6%
- ACR70 (LOCF) [9]: 22.0%
- ACR20 (LOCF) [10]: 22.0%
- ACR20 (NRI) [10]: 22.0%
- ACR50 (LOCF) [10]: 2.4%
- ACR50 (NRI) [10]: 2.4%
- ACR70 (LOCF) [10]: 0.0%
- ACR70 (NRI) [10]: 0.0%
- ACR20 (LOCF) [11]: 22.0%
- ACR20 (NRI) [11]: 22.0%
- ACR50 (LOCF) [11]: 2.4%
- ACR50 (NRI) [11]: 2.4%
- ACR70 (LOCF) [11]: 0.0%
- ACR70 (NRI) [11]: 0.0%
- ACR20 (LOCF) [12]: 57.3%
- ACR20 (NRI) [12]: 54.9%
- ACR50 (LOCF) [12]: 25.6%
- ACR50 (NRI) [12]: 26.8%
- ACR70 (LOCF) [12]: 11.0%
- ACR70 (NRI) [12]: 11.0%
- ACR20 (LOCF) [13]: 57.3%
- ACR20 (NRI) [13]: 54.9%
- ACR50 (LOCF) [13]: 26.8%
- ACR50 (NRI) [13]: 26.8%
- ACR70 (LOCF) [13]: 11.0%
- ACR70 (NRI) [13]: 11.0%
- ACR20 (LOCF) [14]: 45.9%
- ACR20 (NRI) [14]: 47.1%
- ACR50 (LOCF) [14]: 20.0%
- ACR50 (NRI) [14]: 20.0%
- ACR70 (LOCF) [14]: 7.1%
- ACR70 (NRI) [14]: 7.1%
- ACR20 (LOCF) [15]: 48.2%
- ACR20 (NRI) [15]: 47.1%
- ACR50 (LOCF) [15]: 20.0%
- ACR50 (NRI) [15]: 20.0%
- ACR70 (LOCF) [15]: 7.1%
- ACR70 (NRI) [15]: 7.1%
- ACR20 (LOCF) [16]: 48.2%
- ACR20 (NRI) [16]: 50.6%
- ACR50 (LOCF) [16]: 32.9%
- ACR50 (NRI) [16]: 32.9%
- ACR70 (LOCF) [16]: 15.3%
- ACR70 (NRI) [16]: 15.3%
- ACR20 (LOCF) [17]: 51.8%
- ACR20 (NRI) [17]: 51.8%
- ACR50 (LOCF) [17]: 32.9%
- ACR50 (NRI) [17]: 32.9%
- ACR70 (LOCF) [17]: 15.3%
- ACR70 (NRI) [17]: 15.3%
- ACR20 (LOCF) [18]: 64.7%
- ACR20 (NRI) [18]: 64.7%
- ACR50 (LOCF) [18]: 35.3%
- ACR50 (NRI) [18]: 35.3%
- ACR70 (LOCF) [18]: 23.5%
- ACR70 (NRI) [18]: 23.5%
- ACR20 (LOCF) [19]: 63.5%
- ACR20 (NRI) [19]: 62.4%
- ACR50 (LOCF) [19]: 38.8%
- ACR50 (NRI) [19]: 38.8%

Reference: patent US20180200257A1, “METHODS FOR THE TREATMENT OF INFLAMMATORY DISORDERS” (Galapagos NV, priority 2015, published 2018)
